Test results published in ChEMBL document CHEMBL3885881, “DrugMatrix”.

Species on record: Rattus norvegicus
Test: DrugMatrix - Regimen: Daily Repeat
Format: toxicity, organism-based, Sprague-Dawley
Design: regimen Daily Repeat, gender Male, age 6-8 weeks
Conditions: in vivo, po, route oral GAVAGE, vehicle 100 % WATER; for ABSOLUTE BASOPHIL / ABSOLUTE EOSINOPHIL / ABSOLUTE LYMPHOCYTE / ABSOLUTE MONOCYTE / ABSOLUTE SEGMENTED NEUTROPHIL / BASOPHIL / EOSINOPHIL / ERYTHROCYTE COUNT / HEMATOCRIT / HEMOGLOBIN / LEUKOCYTE COUNT / LYMPHOCYTE / MEAN CORPUSCULAR HEMOGLOBIN / MEAN CORPUSCULAR HEMOGLOBIN CONCENTRATION / MEAN CORPUSCULAR VOLUME / MONOCYTE / NEUTROPHIL / NUCLEATED RED BLOOD CELLS / PLATELET COUNT: tissue Blood; for ALANINE AMINOTRANSFERASE / ALBUMIN / ALKALINE PHOSPHATASE / ASPARTATE AMINOTRANSFERASE / BLOOD UREA NITROGEN / CARBON DIOXIDE / CHLORIDE / CHOLESTEROL / CREATINE PHOSPHOKINASE / CREATININE / GLUCOSE / LACTATE DEHYDROGENASE / LIPASE / PHOSPHORUS / POTASSIUM / SODIUM / TOTAL BILIRUBIN / TOTAL PROTEIN / URIC ACID: tissue Plasma
[1] = 56 mg/kg, 120 h, dose level Low, time 5 day
[2] = 476 mg/kg, 72 h, dose level High, time 3 day
[3] = 476 mg/kg, 120 h, dose level High, time 5 day

CC[C@H]1OC(=O)[C@H](C)[C@@H](O[C@H]2C[C@@](C)(OC)[C@@H](O)[C@H](C)O2)[C@H](C)[C@@H](O[C@@H]2O[C@H](C)C[C@H](N(C)C)[C@H]2O)[C@](C)(OC)C[C@@H](C)C(=O)[C@H](C)[C@@H](O)[C@]1(C)O [CLARITHROMYCIN] was tested, and the “ABSOLUTE BASOPHIL” value [1] was 0 CELLS/uL, the “ABSOLUTE EOSINOPHIL” value [1] was 40 CELLS/uL and the “ABSOLUTE LYMPHOCYTE” value [1] was 7764 CELLS/uL. The “ABSOLUTE MONOCYTE” value [1] was 32 CELLS/uL, the “ABSOLUTE SEGMENTED NEUTROPHIL” value [1] was 364 CELLS/uL and the BASOPHIL [1] was 0%. For the same compound, the EOSINOPHIL [1] was 0.67%, the “ERYTHROCYTE COUNT” value [1] was 5.84 x10E6/uL and the HEMATOCRIT [1] was 35.03%. The HEMOGLOBIN [1] was 13.63 G/DL, the “LEUKOCYTE COUNT” value [1] was 8.2 x10E3/uL and the LYMPHOCYTE [1] was 94.67%. The “MEAN CORPUSCULAR HEMOGLOBIN” value [1] was 23.37 pg, the “MEAN CORPUSCULAR HEMOGLOBIN CONCENTRATION” value [1] was 38.9 G/DL and the “MEAN CORPUSCULAR VOLUME” value [1] was 60.03 fL. For the same compound, the MONOCYTE [1] was 0.33%, the NEUTROPHIL [1] was 4.33% and the “NUCLEATED RED BLOOD CELLS” value [1] was 0 /100WBC. For the same compound, the “PLATELET COUNT” value [1] was 1127.33 x10E3/uL, the “ALANINE AMINOTRANSFERASE” value [1] was 56 u/L and the ALBUMIN [1] was 3.97 G/DL. For the same compound, the “ALKALINE PHOSPHATASE” value [1] was 322 u/L, the “ASPARTATE AMINOTRANSFERASE” value [1] was 90.33 u/L and the “BLOOD UREA NITROGEN” value [1] was 16.67 mg/dL. The “CARBON DIOXIDE” value [1] was 34 mmol/L, the CHLORIDE [1] was 98.67 MEQ/L and the CHOLESTEROL [1] was 84 mg/dL. For the same compound, the “CREATINE PHOSPHOKINASE” value [1] was 286 u/L, the CREATININE [1] was 0.11 mg/dL and the GLUCOSE [1] was 141 mg/dL. The “LACTATE DEHYDROGENASE” value [1] was 125 u/L, the LIPASE [1] was 13 u/L and the PHOSPHORUS [1] was 11.17 mg/dL. For the same compound, the POTASSIUM [1] was 6.34 MEQ/L, the SODIUM [1] was 144.27 MEQ/L and the “TOTAL BILIRUBIN” value [1] was 0.17 mg/dL. For the same compound, the “TOTAL PROTEIN” value [1] was 5.97 G/DL, the “URIC ACID” value [1] was 0.73 mg/dL and the “ABSOLUTE BASOPHIL” value [2] was 0 CELLS/uL. For the same compound, the “ABSOLUTE EOSINOPHIL” value [2] was 46 CELLS/uL, the “ABSOLUTE LYMPHOCYTE” value [2] was 13692.67 CELLS/uL and the “ABSOLUTE MONOCYTE” value [2] was 172 CELLS/uL. For the same compound, the “ABSOLUTE SEGMENTED NEUTROPHIL” value [2] was 556 CELLS/uL, the BASOPHIL [2] was 0% and the EOSINOPHIL [2] was 0.33%. The “ERYTHROCYTE COUNT” value [2] was 5.74 x10E6/uL, the HEMATOCRIT [2] was 36.57% and the HEMOGLOBIN [2] was 14.2 G/DL. The “LEUKOCYTE COUNT” value [2] was 14.47 x10E3/uL, the LYMPHOCYTE [2] was 94.67% and the “MEAN CORPUSCULAR HEMOGLOBIN” value [2] was 24.73 pg. For the same compound, the “MEAN CORPUSCULAR HEMOGLOBIN CONCENTRATION” value [2] was 38.83 G/DL, the “MEAN CORPUSCULAR VOLUME” value [2] was 63.7 fL and the MONOCYTE [2] was 1%. For the same compound, the NEUTROPHIL [2] was 4%, the “NUCLEATED RED BLOOD CELLS” value [2] was 0 /100WBC and the “PLATELET COUNT” value [2] was 1345 x10E3/uL. For the same compound, the “ALANINE AMINOTRANSFERASE” value [2] was 55.33 u/L, the ALBUMIN [2] was 3.8 G/DL and the “ALKALINE PHOSPHATASE” value [2] was 227.33 u/L. For the same compound, the “ASPARTATE AMINOTRANSFERASE” value [2] was 72.33 u/L, the “BLOOD UREA NITROGEN” value [2] was 8.33 mg/dL and the “CARBON DIOXIDE” value [2] was 29.67 mmol/L. For the same compound, the CHLORIDE [2] was 99.33 MEQ/L, the CHOLESTEROL [2] was 68 mg/dL and the “CREATINE PHOSPHOKINASE” value [2] was 191.67 u/L. For the same compound, the CREATININE [2] was 0.37 mg/dL, the GLUCOSE [2] was 161 mg/dL and the “LACTATE DEHYDROGENASE” value [2] was 112 u/L. It also gave an LIPASE [2] of 28.67 u/L, a PHOSPHORUS [2] of 11.53 mg/dL and a POTASSIUM [2] of 6.1 MEQ/L. For the same compound, the SODIUM [2] was 142.2 MEQ/L, the “TOTAL BILIRUBIN” value [2] was 0.13 mg/dL and the “TOTAL PROTEIN” value [2] was 5.83 G/DL. The “URIC ACID” value [2] was 1.23 mg/dL, the “ABSOLUTE BASOPHIL” value [3] was 0 CELLS/uL and the “ABSOLUTE EOSINOPHIL” value [3] was 0 CELLS/uL. For the same compound, the “ABSOLUTE LYMPHOCYTE” value [3] was 10830 CELLS/uL, the “ABSOLUTE MONOCYTE” value [3] was 144.67 CELLS/uL and the “ABSOLUTE SEGMENTED NEUTROPHIL” value [3] was 592 CELLS/uL. For the same compound, the BASOPHIL [3] was 0%, the EOSINOPHIL [3] was 0% and the “ERYTHROCYTE COUNT” value [3] was 5.53 x10E6/uL. The HEMATOCRIT [3] was 34.87%, the HEMOGLOBIN [3] was 13.93 G/DL and the “LEUKOCYTE COUNT” value [3] was 11.57 x10E3/uL. For the same compound, the LYMPHOCYTE [3] was 94%, the “MEAN CORPUSCULAR HEMOGLOBIN” value [3] was 25.2 pg and the “MEAN CORPUSCULAR HEMOGLOBIN CONCENTRATION” value [3] was 40 G/DL. For the same compound, the “MEAN CORPUSCULAR VOLUME” value [3] was 63.07 fL, the MONOCYTE [3] was 1% and the NEUTROPHIL [3] was 5%. For the same compound, the “NUCLEATED RED BLOOD CELLS” value [3] was 0 /100WBC, the “PLATELET COUNT” value [3] was 1171.67 x10E3/uL and the “ALANINE AMINOTRANSFERASE” value [3] was 58 u/L. The ALBUMIN [3] was 3.67 G/DL, the “ALKALINE PHOSPHATASE” value [3] was 256.67 u/L and the “ASPARTATE AMINOTRANSFERASE” value [3] was 67 u/L. For the same compound, the “BLOOD UREA NITROGEN” value [3] was 13.33 mg/dL, the “CARBON DIOXIDE” value [3] was 34.67 mmol/L and the CHLORIDE [3] was 98 MEQ/L. The CHOLESTEROL [3] was 64.33 mg/dL, the “CREATINE PHOSPHOKINASE” value [3] was 178.33 u/L and the CREATININE [3] was 0.18 mg/dL. The GLUCOSE [3] was 126.67 mg/dL, the “LACTATE DEHYDROGENASE” value [3] was 105.33 u/L and the LIPASE [3] was 11.67 u/L. It also gave a PHOSPHORUS [3] of 9.63 mg/dL, a POTASSIUM [3] of 6.01 MEQ/L and an SODIUM [3] of 142.53 MEQ/L. For the same compound, the “TOTAL BILIRUBIN” value [3] was 0.13 mg/dL, the “TOTAL PROTEIN” value [3] was 5.9 G/DL and the “URIC ACID” value [3] was 0.6 mg/dL.
